Experimental data from patent US20060116390A1, “Hepatitis c virus inhibitors” (priority 2003, published 2006).
Like-named read-outs stand apart in the source and are kept apart here.

System: HCV proteins in Rep5.1 cells (replicon cell line)
Experiment: Inhibitory activity of HCV: cell-based ELISA in replicon cell line Rep5.1 (decrease of HCV proteins)
Set-up: species or system hepatitis C virus
Details: Rep5.1 cells, 72 hours with drug
Procedure, shortened: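 HCV protein loss was quantified by ELISA on methanol/acetone-fixed cells 72 h after drug addition, probing with selected HCV-positive human plasma, and IC50 was defined as 50% reduction relative to untreated wells. The cells were Rep5.1 replicon cells cultured in DMEM-10 with 500 μg/ml G418, plated at 5000 per well and dosed with serial dilutions after 4 h attachment.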

[1] = Hepatitis C virus, 72 h, concentration at which 50% of HCV proteins was decreased, Table 2, read-out: IC50
[2] = Hepatitis C virus, 72 h, decrease of HCV proteins measured by HCV antibody, Table 1, read-out: Level (IC50 values classified)
[3] = concentration at which 50% of HCV proteins was decreased, Table 2, read-out: IC50

`CC1=C(C(=O)OCCC2CC2)CNC(=S)N1` [2′, 6-methyl-2-thioxo-1,2,3,4-tetrahydro-pyrimidine-5-carboxylic acid 2-cyclopropyl-ethyl ester] was tested, and the IC50 [1] was 2400 nM and the IC50 [2] was 1000 to 10000 nM.

Molecule `CC1=C(C(=O)OCc2cccc(C)c2)CNC(=S)N1` [Compound 90, 6-methyl-2-thioxo-1,2,3,4-tetrahydro-pyrimidine-5-carboxylic acid 3-methyl-benzyl ester] has an IC50 [1] of 400 nM and an IC50 [2] of less than 1000 nM.

`CC1=C(C(=O)OC(C)Cc2ccsc2)CNC(=S)N1` (stereo not drawn) [Compound 255, 6-methyl-2-thioxo-1,2,3,4-tetrahydro-pyrimidine-5-carboxylic acid 2-thiophen-3-yl-1-methyl-ethyl ester] showed an IC50 [1] of 2000 nM and an IC50 [2] of 1000 to 10000 nM.

In the case of `CC1=C(C(=O)OCc2ccc(OC(=O)OC(C)(C)C)cc2)CNC(=S)N1` [Compound 228, 6-methyl-2-thioxo-1,2,3,4-tetrahydro-pyrimidine-5-carboxylic acid 4-t-butoxycarbonyloxy-benzyl ester], the IC50 [1] is reported as 23000 nM and the IC50 [2] is reported as 10000 to 20000 nM.

`CC1=C(C(=O)OCc2cccc(C#N)c2)CNC(=S)N1` [Compound 48, 6-methyl-2-thioxo-1,2,3,4-tetrahydro-pyrimidine-5-carboxylic acid 3-cyano-benzyl ester] showed an IC50 [1] of 30000 nM and an IC50 [2] of 10000 to 20000 nM.

`CC1=C(C(=O)OCC2CC=CCC2)C(CF)NC(=S)N1` (stereo not drawn) [44′, 4-fluoromethyl-6-methyl-2-thioxo-1,2,3,4-tetrahydro-pyrimidine-5-carboxylic acid cyclohex-3-enylmethyl ester] showed an IC50 [1] of 2800 nM and an IC50 [2] of 1000 to 10000 nM.

`CCOc1ccccc1COC(=O)C1=C(C)NC(=S)NC1` [Compound 66, 6-methyl-2-thioxo-1,2,3,4-tetrahydro-pyrimidine-5-carboxylic acid 2-ethoxy-benzyl ester] gave an IC50 [1] of 500 nM and an IC50 [2] of less than 1000 nM.

`CC1=C(C(=O)OCc2cc(Br)cs2)CNC(=S)N1` [Compound 204, 6-methyl-2-thioxo-1,2,3,4-tetrahydro-pyrimidine-5-carboxylic acid 4-bromo-thiophen-2-ylmethyl ester] showed an IC50 [1] of less than 400 nM and an IC50 [2] of less than 1000 nM.

In the case of `CC1=C(C(=O)OCc2ccc(F)cc2Cl)CNC(=S)N1` [Compound 70, 6-methyl-2-thioxo-1,2,3,4-tetrahydro-pyrimidine-5-carboxylic acid 2-chloro-4-fluoro-benzyl ester], the IC50 [1] is reported as less than 500 nM and the IC50 [2] is reported as less than 1000 nM.

For `CC#CCCOC(=O)C1=C(C)NC(=S)NC1` [Compound 160, 6-methyl-2-thioxo-1,2,3,4-tetrahydro-pyrimidine-5-carboxylic acid pent-3-inyl ester], the IC50 [3] was 12000 nM.

Work on `CC1=C(C(=O)OCc2ccccc2SCC(C)C)CNC(=S)N1` [Compound 111, 6-methyl-2-thioxo-1,2,3,4-tetrahydro-pyrimidine-5-carboxylic acid 2-isobutylsulfanyl-benzyl ester] yielded an IC50 [1] of 2000 nM and an IC50 [2] of 1000 to 10000 nM.

`CC1=C(C(=O)OCc2c(C)cccc2C)CNC(=S)N1` [Compound 184, 6-methyl-2-thioxo-1,2,3,4-tetrahydro-pyrimidine-5-carboxylic acid 2,6-dimethyl-benzyl ester] gave an IC50 [1] of 19000 nM and an IC50 [2] of 10000 to 20000 nM.

`CC1=C(C(=O)OCCc2ccccc2Cl)CNC(=S)N1` [Compound 118, 6-methyl-2-thioxo-1,2,3,4-tetrahydro-pyrimidine-5-carboxylic acid 2-(2-chloro-phenyl)-ethyl ester] showed an IC50 [1] of less than 400 nM and an IC50 [2] of less than 1000 nM.

`CC1=C(C(=O)OCCCc2cccc(OC(F)(F)F)c2)CNC(=S)N1` [Compound 106, 6-methyl-2-thioxo-1,2,3,4-tetrahydro-pyrimidine-5-carboxylic acid 3-(3-trifluoromethoxy-phenyl)-propyl ester] showed an IC50 [1] of less than 400 nM and an IC50 [2] of less than 1000 nM.

`CC1=C(C(=O)OCCOC2CCc3ccccc32)CNC(=S)N1` (stereo not drawn) [Compound 125, 6-methyl-2-thioxo-1,2,3,4-tetrahydro-pyrimidine-5-carboxylic acid 2-(indan-1-yloxy)-ethyl ester] gave an IC50 [1] of 2000 nM and an IC50 [2] of 1000 to 10000 nM.

`CC1=C(C(=O)OCCc2ccsc2)CNC(=S)N1` [Compound 208, 6-methyl-2-thioxo-1,2,3,4-tetrahydro-pyrimidine-5-carboxylic acid 2-thiophen-3-yl-ethyl ester] showed an IC50 [1] of less than 400 nM and an IC50 [2] of less than 1000 nM.

`CC1=C(C(=O)OCCOCc2ccccc2)CNC(=S)N1` [Compound 15, 6-methyl-2-thioxo-1,2,3,4-tetrahydro-pyrimidine-5-carboxylic acid 2-benzyloxy-ethyl ester] gave an IC50 [1] of 3000 nM and an IC50 [2] of 1000 to 10000 nM.

`CC1=C(C(=O)OCc2ccccc2S(C)(=O)=O)CNC(=S)N1` [Compound 112, 6-methyl-2-thioxo-1,2,3,4-tetrahydro-pyrimidine-5-carboxylic acid 2-methanesulfonyl-benzyl ester] showed an IC50 [1] greater than 100000 nM and an IC50 [2] greater than 20000 nM.

Molecule `CC1=C(C(=O)OCCc2ccc(Cl)cc2)CNC(=S)N1` [Compound 94, 6-methyl-2-thioxo-1,2,3,4-tetrahydro-pyrimidine-5-carboxylic acid 2-(4-chloro-phenyl)-ethyl ester] has an IC50 [1] of less than 400 nM and an IC50 [2] of less than 1000 nM.

In the case of `CC1=C(C(=O)OCc2ccc(O)cc2)CNC(=S)N1` [Compound 229, 6-methyl-2-thioxo-1,2,3,4-tetrahydro-pyrimidine-5-carboxylic acid 4-hydroxy-benzyl ester], the IC50 [1] is reported as greater than 100000 nM and the IC50 [2] is reported as greater than 20000 nM.

`CC1=C(C(=O)OCc2ccc(Cl)s2)CNC(=S)N1` [Compound 233, 6-methyl-2-thioxo-1,2,3,4-tetrahydro-pyrimidine-5-carboxylic acid 5-chloro-thiophen-2-ylmethyl ester] showed an IC50 [1] of 200 nM and an IC50 [2] of less than 1000 nM.

Work on `C=CCN(CC)c1ccc(CCOC(=O)C2=C(C)NC(=S)NC2CO)cc1[N+](=O)[O-]` (stereo not drawn) [97″, 4-Hydroxymethyl-6-methyl-2-thioxo-1,2,3,4-tetrahydro-pyrimidine-5-carboxylic acid 2-[4-(allyl-ethyl-amino)-3-nitro-phenyl]-ethyl ester] yielded an IC50 [1] of 600 nM and an IC50 [2] of less than 1000 nM.

In the case of `CC1=C(C(=O)OCc2ccc(-c3cccs3)s2)CNC(=S)N1` [Compound 218, 6-methyl-2-thioxo-1,2,3,4-tetrahydro-pyrimidine-5-carboxylic acid[2,2′]bithiophenyl-5-ylmethyl ester], the IC50 [3] is reported as less than 400 nM.

Work on `CC1=C(C(=O)OCCCc2ccc(OCc3ccccc3)cc2)CNC(=S)N1` [Compound 108, 6-methyl-2-thioxo-1,2,3,4-tetrahydro-pyrimidine-5-carboxylic acid 3-(4-benzyloxy-phenyl)-propyl ester] yielded an IC50 [1] of less than 400 nM and an IC50 [2] of less than 1000 nM.

Work on `CC1=C(C(=O)OCCCc2ccc(F)cc2)CNC(=S)N1` [Compound 103, 6-methyl-2-thioxo-1,2,3,4-tetrahydro-pyrimidine-5-carboxylic acid 3-(4-fluoro-phenyl)-propyl ester] yielded an IC50 [1] of less than 400 nM and an IC50 [2] of less than 1000 nM.

`CC1=C(C(=O)OCCc2csc([N+](=O)[O-])c2)CNC(=S)N1` [26′, 6-methyl-2-thioxo-1,2,3,4-tetrahydro-pyrimidine-5-carboxylic acid 2-(5-nitro-thiophen-3-yl)-ethyl ester] showed an IC50 [1] of 900 nM and an IC50 [2] of less than 1000 nM.

With `C#CC(C)OCC#CCOC(=O)C1=C(C)NC(=S)NC1` (stereo not drawn) [Compound 246, 6-methyl-2-thioxo-1,2,3,4-tetrahydro-pyrimidine-5-carboxylic acid 4-(1-methyl-prop-2-inyloxy)-but-2-inyl ester] the IC50 [3] was 68000 nM.
